Measurements as given in patent US10342776B2, “Compositions and methods for controlling infections” (priority 2004, dated 2019).

Experiments:
Staphylococcus aureus = details: earlier work, U.S. application Ser. No. 10/986,512; cited from earlier work
[1] = tested on: Haemophilus influenzae (two clinical isolates); assay: Haemophilus influenzae growth on chocolate agar plates with GML; type: cell-based
Method: G. vaginalis was formerly designated Haemophilus vaginalis. This consideration raised the possibility that GML would inhibit the growth of Haemophilus influenzae. Two recent clinical isolates of encapsulated (capsule type not typable) Haemophilus influenzae (0.1 ml at 1.0×10^7/ml plated) organisms were tested for ability to grow on chocolate agar plates with no or various concentrations of GML (Table 4; data obtained after 24 of culture). The growth of both strains was inhibited at GML concentrations of 10 μg/ml or greater.

Aspergillus fungi = assay: Mycelium formation on Todd Hewitt agar plates containing GML, Aspergillus; type: cell-based; details: for mycelium growth on plates: 36 hours, room temperature
Method: (§1) Organisms (at the spore phase) of Aspergillus and Penicillium fungi obtained from nature were separately streaked on Todd Hewitt agar plates containing various concentrations of GML. The plates were incubated at room temperature for 36 hours after which mycelium growth was determined by direct visual examination. […] In contrast, the organisms grew on plates containing 0 and 50 μg/ml.

Neisseria gonorrheae = details: earlier work, U.S. application Ser. No. 10/986,512; cited from earlier work
Salmonella = assay: Direct toxicity of GML to Salmonella; type: cell-based
From the text: (§2) Thus, it was surprising to discover that a number of other bacterial genera (see below) were highly sensitive to the direct toxic effects of GML.

[2] = tested on: Candida albicans (clinical isolates, yeast phase); assay: Yeast phase Candida albicans liquid cultures with GML, CFU/ml by plating; type: cell-based
Method: The Candida albicans samples that were tested in the experiments described in Examples 2 and 3 were recent clinical isolates. The strains were of low passage and were maintained on Todd Hewitt (Difco Laboratories, Detroit, Mich.) agar plates. The organisms were transferred to 25 ml Todd Hewitt broth cultures in 125 ml Erlenmeyer flasks and grown overnight at 37° C. in 7% CO2 with shaking at 200 revolutions per minute (RPM). The next morning the organisms were transferred to new 125 ml flasks containing 25 ml Todd Hewitt medium at a final concentration of 1×10^6 colony forming units (CFU)/ml. […] The GML was made up at a concentration of 100,000 μg/ml in absolute ethanol for addition to the flasks. […] The flasks were cultured for up to 24 hours at 37° C. in 7% CO2 with shaking at 200 revolutions per minute. […] This experiment was performed twice.
The effect of growing yeast phase organisms of a clinical isolate of Candida albicans in the presence of GML was tested in liquid cultures as described in Example 1. […] The GML-mediated killing effect was not seen in cultures containing 20 and 10 μg/ml of GML. […] The experiment was repeated with identical results. The experiment was also carried out with a second clinical isolate of Candida albicans.

Haemophilus influenzae = assay: Kinetic study of Haemophilus influenzae growth in Todd Hewitt medium with GML, CFU/ml; type: cell-based; details: GML 50 μg/ml or 100 μg/ml; liquid culture up to 24 hours
Method: The strain was inoculated (at a concentration of 1.2×10^6 CFU/ml) into 50 ml of Todd Hewitt medium containing various concentrations of GML. The cultures were grown for 24 hours in an atmosphere of 7% carbon dioxide (balance air) with shaking at 100 RPM. At designated times samples were removed, and colony forming units (CFU) per milliliter were determined by plate counts on chocolate agar plates.

[3] = tested on: Gardnerella vaginalis (clinical isolate); assay: G. vaginalis liquid culture with GML in the presence of 10% fetal calf serum; type: cell-based; details: for Cells/ml (×10^7) at 24 hours: 10% fetal calf serum
Method: (§3) Cells (1.2×10^7/ml in a total volume of 25 ml of dialyzable beef heart medium) of a recent clinical isolate of the gram negative rod Gardnerella vaginalis in vitro were cultured for various lengths of time with various concentrations of GML. At the various time points, the concentration of bacteria in the cultures were determined by colony counting on chocolate agar plates. GML at concentrations as low as 5 μg/ml were bactericidal to G. vaginalis. […] This finding points to the likely efficacy of GML in vivo. Moreover, GML (5 μg/ml or greater) inhibited growth of G. vaginalis plated (0.1 ml at 1.2×10^7/ml) onto chocolate agar plates (Table 3; data obtained after 24 hours of culturing).

[4] = tested on: Lactobacillus (L. crispatis); assay: In vitro growth of L. crispatis bacteria with GML; type: cell-based
From the text: as §2

Gardnerella vaginalis = assay: G. vaginalis growth on chocolate agar plates with GML; type: cell-based; details: 24 hours
Method: as §3

Penicillium fungi = assay: Mycelium formation on Todd Hewitt agar plates containing GML, Penicillium; type: cell-based; details: for mycelium growth on plates: 36 hours, room temperature
Method: as §1

Escherichia coli = assay: Direct toxicity of GML to Escherichia coli; type: cell-based
From the text: as §2

[5] = 50 μg/ml GML, about 4 days compared to 36 hours
[6] = 100 and 500 μg/ml GML, about 4 days
[7] = first clinical isolate, 50, 200 and 1000 μg/ml GML, by 4 hours
[8] = GML concentrations up to 100 μg/ml

Question: For `CCCCCCCCCCCC(=O)OCC(O)CO` (stereo not shown) [GML, glycerol monolaurate], which “resistance to direct toxic effects of GML” value (Staphylococcus aureus) is on record?
Answer: relatively resistant

Question: And the “Growth Characteristics (Strain 1)” value ([1]; GML 1 μg/ml)?
Answer: Confluent growth

Question: And the “Growth Characteristics (Strain 2)” value ([1]; GML 1 μg/ml)?
Answer: Confluent growth

Question: What about the “Growth Characteristics (Strain 1)” value ([1]; GML 5 μg/ml) of the same compound?
Answer: Confluent growth

Question: And the “Growth Characteristics (Strain 2)” value ([1]; GML 5 μg/ml)?
Answer: Confluent growth

Question: And the “Growth Characteristics (Strain 1)” value ([1]; GML 10 μg/ml)?
Answer: No visible growth

Question: What about the “Growth Characteristics (Strain 2)” value ([1]; GML 10 μg/ml) of the same compound?
Answer: No visible growth

Question: And the “Growth Characteristics (Strain 1)” value ([1]; GML 20 μg/ml)?
Answer: No visible growth

Question: And the “Growth Characteristics (Strain 2)” value ([1]; GML 20 μg/ml)?
Answer: No visible growth

Question: And the “Growth Characteristics (Strain 1)” value ([1]; GML 50 μg/ml)?
Answer: No visible growth

Question: What about the “Growth Characteristics (Strain 2)” value ([1]; GML 50 μg/ml) of the same compound?
Answer: No visible growth

Question: What about the “Growth Characteristics (Strain 1)” value ([1]; GML 100 μg/ml) of the same compound?
Answer: No visible growth

Question: And the “Growth Characteristics (Strain 2)” value ([1]; GML 100 μg/ml)?
Answer: No visible growth

Question: And the “GML concentration at which growth was inhibited” value ([1]; both strains, chocolate agar plates)?
Answer: ≥ 10 µg/mL

Question: What about the “mycelium growth on plates” value (Aspergillus fungi; 50 μg/ml GML) of the same compound?
Answer: grew

Question: And the “colony size on plates” value (Aspergillus fungi; [5])?
Answer: larger in size

Question: What about the “mycelium growth on plates” value (Aspergillus fungi; 100 and 500 μg/ml GML) of the same compound?
Answer: failed to grow

Question: And the “visible colonies on plates” value (Aspergillus fungi; [6])?
Answer: no visible colonies

Question: What about the “resistance to direct toxic effects of GML” value (Neisseria gonorrheae) of the same compound?
Answer: relatively resistant

Question: What about the “resistance to direct toxicity by GML” value (Salmonella) of the same compound?
Answer: relatively resistant

Question: What about the growth in culture ([2]; first clinical isolate, 20 and 10 μg/ml GML) of the same compound?
Answer: grew to almost the same level as in the control cultures

Question: What about the “organisms detectable in culture” value [2, 7] of the same compound?
Answer: no organisms were detectable

Question: And the “reduction in CFU/ml” value [2, 7]?
Answer: > 5 log

Question: And the “number of organisms in culture compared to 0 μg/ml” value ([2]; second clinical isolate, 50 μg/ml GML, 2, 4 and 6 hours)?
Answer: reduced at all time intervals sampled

Question: And the “organisms detectable in culture” value ([2]; second clinical isolate, 100 and 500 μg/ml GML, by 2 hours)?
Answer: no organisms were detectable

Question: What about the “growth of H. influenza organisms” value (Haemophilus influenzae) of the same compound?
Answer: inhibited the growth

Question: And the “Cells/ml (×10^7) at 24 hours” value ([3]; GML 1 μg/ml)?
Answer: 210 Cells/ml (×10^7)

Question: What about the “Cells/ml (×10^7) at 24 hours” value ([3]; GML 5 μg/ml) of the same compound?
Answer: 201 Cells/ml (×10^7)

Question: What about the “Cells/ml (×10^7) at 24 hours” value ([3]; GML 10 μg/ml) of the same compound?
Answer: 160 Cells/ml (×10^7)

Question: And the “Cells/ml (×10^7) at 24 hours” value ([3]; GML 20 μg/ml)?
Answer: 88 Cells/ml (×10^7)

Question: And the “Cells/ml (×10^7) at 24 hours” value ([3]; GML 50 μg/ml)?
Answer: 1.8 Cells/ml (×10^7)

Question: What about the “Cells/ml (×10^7) at 24 hours” value ([3]; GML 100 μg/ml) of the same compound?
Answer: <0.03 Cells/ml (×10^7)

Question: What about the “inhibition of growth of G. vaginalis” value ([3]; medium supplemented with fetal calf serum) of the same compound?
Answer: effective in inhibiting the growth

Question: What about the “resistance to direct toxicity by GML” value [4] of the same compound?
Answer: relatively resistant

Question: And the “effect on in vitro growth” value ([4]; GML concentrations up to 50 μg/ml)?
Answer: had no effect

Question: And the “effect on in vitro growth” value [4, 8]?
Answer: delayed (but did not stop) its growth

Question: What about the “effect on stationary phase survival” value [4, 8] of the same compound?
Answer: extended their stationary phase survival

Question: What about the “GML concentration that inhibited growth of G. vaginalis” value (Gardnerella vaginalis) of the same compound?
Answer: ≥ 5 µg/mL

Question: What about the “Growth Characteristics” value (Gardnerella vaginalis; GML 1 μg/ml) of the same compound?
Answer: Confluent growth

Question: And the “Growth Characteristics” value (Gardnerella vaginalis; GML 5 μg/ml)?
Answer: No visible growth

Question: And the “Growth Characteristics” value (Gardnerella vaginalis; GML 10 μg/ml)?
Answer: No visible growth

Question: What about the “Growth Characteristics” value (Gardnerella vaginalis; GML 20 μg/ml) of the same compound?
Answer: No visible growth

Question: And the “Growth Characteristics” value (Gardnerella vaginalis; GML 50 μg/ml)?
Answer: No visible growth

Question: And the “Growth Characteristics” value (Gardnerella vaginalis; GML 100 μg/ml)?
Answer: No visible growth

Question: And the “mycelium growth on plates” value (Penicillium fungi; 50 μg/ml GML)?
Answer: grew

Question: And the “colony size on plates” value (Penicillium fungi; [5])?
Answer: larger in size

Question: And the “mycelium growth on plates” value (Penicillium fungi; 100 and 500 μg/ml GML)?
Answer: failed to grow

Question: And the “visible colonies on plates” value (Penicillium fungi; [6])?
Answer: no visible colonies

Question: And the “resistance to direct toxicity by GML” value (Escherichia coli)?
Answer: relatively resistant
